Test results: US20100215777A1, “Malononitrile Compounds” (BASF SE, priority 2006, published 2010)

melting point: 88 to 90 °C
Compound: N#CC(C#N)(CCCSC(F)(F)F)CC(F)(F)C(F)(F)C(F)(F)C(F)(F)C(F)(F)F
